What was measured:
Spodoptera exigua [1] = assay: Antifeedant activity against third-instar larval stage of Spodoptera exigua infested compound-treated leaf assessed as time required to stop feeding at 244 mg a.i/L after 48 hr by leaf disk assay (reference value: > 2880 min); assay type: functional
Helicoverpa zea [2] = assay: Antifeedant activity against third-instar larval stage of Helicoverpa zea (corn earworm) infested compound-treated leaf assessed as time required to stop feeding at 244 mg a.i/L after 48 hr by leaf disk assay (reference value: > 2880 min); assay type: functional
Spodoptera exigua [3] = assay: Antifeedant activity against third-instar larval stage of Spodoptera exigua infested compound-treated leaf assessed as reduction in feeding damage at 244 mg a.i/L after 48 hr by leaf disk assay relative to untreated control; assay type: functional; set-up: scale not given: the % may be the effect or the level left
Plutella xylostella [4] = assay: Antifeedant activity against third-instar larval stage of Plutella xylostella (diamondback moth) infested compound-treated leaf assessed as reduction in feeding damage at 244 mg a.i/L after 48 hr by leaf disk assay relative to untreated control; assay type: functional; set-up: scale not given: the % may be the effect or the level left
Trichoplusia ni [5] = assay: Antifeedant activity against third-instar larval stage of Trichoplusia ni (cabbage looper) infested compound-treated leaf assessed as time required to stop feeding at 244 mg a.i/L after 48 hr by leaf disk assay (reference value: > 2880 min); assay type: functional
Plutella xylostella [6] = assay: Antifeedant activity against third-instar larval stage of Plutella xylostella (diamondback moth) infested compound-treated leaf assessed as time required to stop feeding at 244 mg a.i/L after 48 hr by leaf disk assay (reference value: > 2880 min); assay type: functional
Helicoverpa zea [7] = assay: Antifeedant activity against third-instar larval stage of Helicoverpa zea (corn earworm) infested compound-treated leaf assessed as reduction in feeding damage at 244 mg a.i/L after 48 hr by leaf disk assay relative to untreated control; assay type: functional; set-up: scale not given: the % may be the effect or the level left
Trichoplusia ni [8] = assay: Antifeedant activity against third-instar larval stage of Trichoplusia ni (cabbage looper) infested compound-treated leaf assessed as reduction in feeding damage at 244 mg a.i/L after 48 hr by leaf disk assay relative to untreated control; assay type: functional; set-up: scale not given: the % may be the effect or the level left
Helicoverpa zea [9] = assay: Antifeedant activity against third-instar larval stage of Helicoverpa zea (corn earworm) infested compound-treated leaf assessed as reduction in feeding damage at 467 mg a.i/L after 48 hr by leaf disk assay relative to untreated control; assay type: functional; set-up: scale not given: the % may be the effect or the level left
Trichoplusia ni [10] = assay: Antifeedant activity against third-instar larval stage of Trichoplusia ni (cabbage looper) infested compound-treated leaf assessed as reduction in feeding damage at 467 mg a.i/L after 48 hr by leaf disk assay relative to untreated control; assay type: functional; set-up: scale not given: the % may be the effect or the level left
Spodoptera exigua [11] = assay: Antifeedant activity against third-instar larval stage of Spodoptera exigua infested compound-treated leaf assessed as time required to stop feeding at 467 mg a.i/L after 48 hr by leaf disk assay (reference value: > 2880 min); assay type: functional
Helicoverpa zea [12] = assay: Antifeedant activity against third-instar larval stage of Helicoverpa zea (corn earworm) infested compound-treated leaf assessed as time required to stop feeding at 467 mg a.i/L after 48 hr by leaf disk assay (reference value: > 2880 min); assay type: functional
Trichoplusia ni [13] = assay: Antifeedant activity against third-instar larval stage of Trichoplusia ni (cabbage looper) infested compound-treated leaf assessed as time required to stop feeding at 467 mg a.i/L after 48 hr by leaf disk assay (reference value: > 2880 min); assay type: functional
Plutella xylostella [14] = assay: Antifeedant activity against third-instar larval stage of Plutella xylostella (diamondback moth) infested compound-treated leaf assessed as reduction in feeding damage at 467 mg a.i/L after 48 hr by leaf disk assay relative to untreated control; assay type: functional; set-up: scale not given: the % may be the effect or the level left
Spodoptera exigua [15] = assay: Antifeedant activity against third-instar larval stage of Spodoptera exigua infested compound-treated leaf assessed as reduction in feeding damage at 467 mg a.i/L after 48 hr by leaf disk assay relative to untreated control; assay type: functional; set-up: scale not given: the % may be the effect or the level left
Plutella xylostella [16] = assay: Antifeedant activity against third-instar larval stage of Plutella xylostella (diamondback moth) infested compound-treated leaf assessed as time required to stop feeding at 467 mg a.i/L after 48 hr by leaf disk assay (reference value: > 2880 min); assay type: functional
Spodoptera exigua [17] = assay: Antifeedant activity against third-instar larval stage of Spodoptera exigua infested compound-treated leaf assessed as time required to stop feeding at 124 mg a.i/L after 48 hr by leaf disk assay (reference value: > 2880 min); assay type: functional
Helicoverpa zea [18] = assay: Antifeedant activity against third-instar larval stage of Helicoverpa zea (corn earworm) infested compound-treated leaf assessed as time required to stop feeding at 124 mg a.i/L after 48 hr by leaf disk assay (reference value: > 2880 min); assay type: functional
Spodoptera exigua [19] = assay: Antifeedant activity against third-instar larval stage of Spodoptera exigua infested compound-treated leaf assessed as reduction in feeding damage at 124 mg a.i/L after 48 hr by leaf disk assay relative to untreated control; assay type: functional; set-up: scale not given: the % may be the effect or the level left
Helicoverpa zea [20] = assay: Antifeedant activity against third-instar larval stage of Helicoverpa zea (corn earworm) infested compound-treated leaf assessed as reduction in feeding damage at 124 mg a.i/L after 48 hr by leaf disk assay relative to untreated control; assay type: functional; set-up: scale not given: the % may be the effect or the level left
Trichoplusia ni [21] = assay: Antifeedant activity against third-instar larval stage of Trichoplusia ni (cabbage looper) infested compound-treated leaf assessed as reduction in feeding damage at 124 mg a.i/L after 48 hr by leaf disk assay relative to untreated control; assay type: functional; set-up: scale not given: the % may be the effect or the level left
Plutella xylostella [22] = assay: Antifeedant activity against third-instar larval stage of Plutella xylostella (diamondback moth) infested compound-treated leaf assessed as reduction in feeding damage at 124 mg a.i/L after 48 hr by leaf disk assay relative to untreated control; assay type: functional; set-up: scale not given: the % may be the effect or the level left
Trichoplusia ni [23] = assay: Antifeedant activity against third-instar larval stage of Trichoplusia ni (cabbage looper) infested compound-treated leaf assessed as time required to stop feeding at 124 mg a.i/L after 48 hr by leaf disk assay (reference value: > 2880 min); assay type: functional
Plutella xylostella [24] = assay: Antifeedant activity against third-instar larval stage of Plutella xylostella (diamondback moth) infested compound-treated leaf assessed as time required to stop feeding at 124 mg a.i/L after 48 hr by leaf disk assay (reference value: > 2880 min); assay type: functional
Trichoplusia ni [25] = assay: Antifeedant activity against third-instar larval stage of Trichoplusia ni (cabbage looper) infested compound-treated leaf assessed as time required to stop feeding at 936 mg a.i/L after 48 hr by leaf disk assay (reference value: > 2880 min); assay type: functional, organism-based
Plutella xylostella [26] = assay: Antifeedant activity against third-instar larval stage of Plutella xylostella (diamondback moth) infested compound-treated leaf assessed as reduction in feeding damage at 936 mg a.i/L after 48 hr by leaf disk assay relative to untreated control; assay type: functional, organism-based; set-up: scale not given: the % may be the effect or the level left
Trichoplusia ni [27] = assay: Antifeedant activity against third-instar larval stage of Trichoplusia ni (cabbage looper) infested compound-treated leaf assessed as reduction in feeding damage at 936 mg a.i/L after 48 hr by leaf disk assay relative to untreated control; assay type: functional, organism-based; set-up: scale not given: the % may be the effect or the level left
Helicoverpa zea [28] = assay: Antifeedant activity against third-instar larval stage of Helicoverpa zea (corn earworm) infested compound-treated leaf assessed as reduction in feeding damage at 936 mg a.i/L after 48 hr by leaf disk assay relative to untreated control; assay type: functional, organism-based; set-up: scale not given: the % may be the effect or the level left
Spodoptera exigua [29] = assay: Antifeedant activity against third-instar larval stage of Spodoptera exigua infested compound-treated leaf assessed as reduction in feeding damage at 936 mg a.i/L after 48 hr by leaf disk assay relative to untreated control; assay type: functional, organism-based; set-up: scale not given: the % may be the effect or the level left
Plutella xylostella [30] = assay: Antifeedant activity against third-instar larval stage of Plutella xylostella (diamondback moth) infested compound-treated leaf assessed as time required to stop feeding at 936 mg a.i/L after 48 hr by leaf disk assay (reference value: > 2880 min); assay type: functional, organism-based
Spodoptera exigua [31] = assay: Antifeedant activity against third-instar larval stage of Spodoptera exigua infested compound-treated leaf assessed as time required to stop feeding at 936 mg a.i/L after 48 hr by leaf disk assay (reference value: > 2880 min); assay type: functional, organism-based
Helicoverpa zea [32] = assay: Antifeedant activity against third-instar larval stage of Helicoverpa zea (corn earworm) infested compound-treated leaf assessed as time required to stop feeding at 936 mg a.i/L after 48 hr by leaf disk assay (reference value: > 2880 min); assay type: functional, organism-based

With COC(=O)N(C(=O)N1CO[C@@]2(C(=O)OC)Cc3cc(Cl)ccc3C2=N1)c1ccc(OC(F)(F)F)cc1 [INDOXACARB] the Time (Spodoptera exigua [1]) was 54.2 min, the Time (Helicoverpa zea [2]) was 77.2 min and the Activity (Spodoptera exigua [3]) was 95.4%. It also gave an Activity (Plutella xylostella [4]) of 96.6%, a Time (Trichoplusia ni [5]) of 83.6 min and a Time (Plutella xylostella [6]) of 151.6 min. The Activity (Helicoverpa zea [7]) was 93.4% and the Activity (Trichoplusia ni [8]) was 94.8%.

For COc1cccc(C(=O)NN(C(=O)c2cc(C)cc(C)c2)C(C)(C)C)c1C [METHOXYFENOZIDE], the Activity (Helicoverpa zea [9]) was 93.3%, the Activity (Trichoplusia ni [10]) was 81.6% and the Time (Spodoptera exigua [11]) was 281.1 min. For the same molecule, the Time (Helicoverpa zea [12]) was 471.8 min, the Time (Trichoplusia ni [13]) was 408.8 min and the Activity (Plutella xylostella [14]) was 96%. The Activity (Spodoptera exigua [15]) was 72.9% and the Time (Plutella xylostella [16]) was 514.5 min.

CC1(C)[C@H](/C=C(\Cl)C(F)(F)F)[C@@H]1C(=O)O[C@@H](C#N)c1cccc(Oc2ccccc2)c1 [REL-LAMBDA CYHALOTHRIN] gave a Time (Spodoptera exigua [17]) of 5.4 min, a Time (Helicoverpa zea [18]) of 7.3 min and an Activity (Spodoptera exigua [19]) of 99.5%. For the same molecule, the Activity (Helicoverpa zea [20]) was 99.9%, the Activity (Trichoplusia ni [21]) was 99.9% and the Activity (Plutella xylostella [22]) was 99.6%. For the same molecule, the Time (Trichoplusia ni [23]) was 9.3 min and the Time (Plutella xylostella [24]) was 8.1 min.

Work on METAFLUMIZONE yielded a TIME (Trichoplusia ni [25]) of 4.23 h, an Activity (Plutella xylostella [26]) of 89.6% and an Activity (Trichoplusia ni [27]) of 87.6%. For the same molecule, the Activity (Helicoverpa zea [28]) was 57.9%, the Activity (Spodoptera exigua [29]) was 47.4% and the TIME (Plutella xylostella [30]) was 6.04 h. For the same molecule, the TIME (Spodoptera exigua [31]) was 7.96 h and the TIME (Helicoverpa zea [32]) was 10.3 h.
